# According to patent publication US8309546B2, “Morpholinopurine derivatives” (Daiichi Sankyo Company, Limited, priority 2008, dated 2012):
# Assays:
# [1] = test system: S6 (serine 235 and 236) phosphorylation in AN3CA tumor; test: S6 phosphorylation inhibition assay in xenograft; assay type: in vivo, female nude mouse; settings: Mus musculus, AN3-CA, oral, 6 hr after dosing
# Method: (§1) A tumor section was prepared from a human endometrial cancer cell strain AN3CA tumor mass formed in a female nude mouse as subcutaneously transplanted tumor and a xenograft model was prepared by subcutaneously transplanting the tumor to a female nude mouse. The test compound at a predetermined concentration was orally administered. After a predetermined time, the anesthetized mouse was exsanguinated to death, and a tumor mass was isolated. The tumor mass was crushed using a lysis buffer containing inhibitors of proteases and dephosphorylating enzymes (Cell Signaling Technology, Inc.) and the supernatant was separated by centrifugation to obtain a tumor extract. The protein content of the tumor extract was measured using DC Protein Assay Kit (Bio-Rad Laboratories, Inc.) and phosphorylation conditions of Akt (threonine 308) and S6 (serine 235 and 236) were analyzed by a usual technique of western blotting using tumor extracts containing the same amount of protein. The primary antibody and the secondary antibody used for detecting each molecule were rabbit anti-phospho-Akt(T308) antibody and HRP-labeled goat anti-rabbit IgG antibody or mouse anti-phospho-S6(S235/236) antibody and HRP-labeled sheep anti-mouse IgG antibody.
# (§2) The signal intensity detected using an image analyzer Typhoon 9400 (GE Healthcare) was quantified, and the phosphorylation inhibition rate (%) was calculated by the following formula. Phosphorylation inhibitory activity (%) of Akt and S6 after treatment with test compound=100−100×(B/A) A: Signal intensity derived from phosphorylated protein in tumor mass isolated from mouse untreated with test compound B: Signal intensity derived from phosphorylated protein in tumor mass isolated from mouse treated with test compound
# [2] = test system: human colon cancer cell strain HT29; test: Cell growth inhibition test (MTT), HT29; assay type: cell-based; settings: HT-29, 72 h, HT29, 3 days culture, read-out: concentration exhibiting anti-cell effect (GI50)
# Procedure, shortened: (§3)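 AN3CA, IGROV1 and HT29 seeded at 5000, 1000 and 5000 cells/well; compound added next day, 3 days at 37° C, 5% CO2. MTT 4 h, formazan in DMSO read at 540 nm. GI50 is the concentration giving 50% growth rate (T/C %, corrected for day-of-addition absorbance), interpolated between two bracketing concentrations.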
# PI3Kα = PI3Kα (Homo sapiens, UniProt P42336); test: PI3K kinase activity inhibition assay; assay type: biochemical; settings: Kinase-Glo Plus ATP detection, read-out: IC50 against PI3K
# Sequence of PI3Kα (P42336 whole entry, species assumed): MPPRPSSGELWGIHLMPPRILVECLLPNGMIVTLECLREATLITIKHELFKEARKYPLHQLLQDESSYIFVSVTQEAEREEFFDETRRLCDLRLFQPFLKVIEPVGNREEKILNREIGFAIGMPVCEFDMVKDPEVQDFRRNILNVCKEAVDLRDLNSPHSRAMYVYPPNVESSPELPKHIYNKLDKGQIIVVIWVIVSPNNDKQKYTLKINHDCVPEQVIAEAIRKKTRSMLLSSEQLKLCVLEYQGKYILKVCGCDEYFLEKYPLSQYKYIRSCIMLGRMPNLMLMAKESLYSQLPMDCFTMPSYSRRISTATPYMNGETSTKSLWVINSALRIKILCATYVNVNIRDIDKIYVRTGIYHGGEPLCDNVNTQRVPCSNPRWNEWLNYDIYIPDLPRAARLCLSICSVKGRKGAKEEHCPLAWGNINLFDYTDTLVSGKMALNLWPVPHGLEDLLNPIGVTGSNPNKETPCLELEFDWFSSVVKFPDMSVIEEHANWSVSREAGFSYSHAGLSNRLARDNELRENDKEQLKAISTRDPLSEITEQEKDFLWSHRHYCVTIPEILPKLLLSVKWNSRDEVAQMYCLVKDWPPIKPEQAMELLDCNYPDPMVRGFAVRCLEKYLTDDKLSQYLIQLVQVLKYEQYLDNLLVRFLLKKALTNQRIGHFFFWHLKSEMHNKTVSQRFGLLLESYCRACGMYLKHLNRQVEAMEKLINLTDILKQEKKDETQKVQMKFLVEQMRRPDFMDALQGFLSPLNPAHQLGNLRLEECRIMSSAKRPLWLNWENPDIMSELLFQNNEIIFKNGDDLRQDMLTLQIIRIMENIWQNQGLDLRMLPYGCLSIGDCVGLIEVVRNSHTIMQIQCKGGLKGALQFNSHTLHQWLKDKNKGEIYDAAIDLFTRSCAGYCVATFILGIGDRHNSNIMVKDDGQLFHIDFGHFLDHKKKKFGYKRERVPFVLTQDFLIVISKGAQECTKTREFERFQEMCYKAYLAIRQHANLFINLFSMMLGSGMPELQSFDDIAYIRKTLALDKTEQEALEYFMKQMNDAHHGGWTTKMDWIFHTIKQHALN
# Sequence of PI3Kα (P27986 whole entry partner, species assumed): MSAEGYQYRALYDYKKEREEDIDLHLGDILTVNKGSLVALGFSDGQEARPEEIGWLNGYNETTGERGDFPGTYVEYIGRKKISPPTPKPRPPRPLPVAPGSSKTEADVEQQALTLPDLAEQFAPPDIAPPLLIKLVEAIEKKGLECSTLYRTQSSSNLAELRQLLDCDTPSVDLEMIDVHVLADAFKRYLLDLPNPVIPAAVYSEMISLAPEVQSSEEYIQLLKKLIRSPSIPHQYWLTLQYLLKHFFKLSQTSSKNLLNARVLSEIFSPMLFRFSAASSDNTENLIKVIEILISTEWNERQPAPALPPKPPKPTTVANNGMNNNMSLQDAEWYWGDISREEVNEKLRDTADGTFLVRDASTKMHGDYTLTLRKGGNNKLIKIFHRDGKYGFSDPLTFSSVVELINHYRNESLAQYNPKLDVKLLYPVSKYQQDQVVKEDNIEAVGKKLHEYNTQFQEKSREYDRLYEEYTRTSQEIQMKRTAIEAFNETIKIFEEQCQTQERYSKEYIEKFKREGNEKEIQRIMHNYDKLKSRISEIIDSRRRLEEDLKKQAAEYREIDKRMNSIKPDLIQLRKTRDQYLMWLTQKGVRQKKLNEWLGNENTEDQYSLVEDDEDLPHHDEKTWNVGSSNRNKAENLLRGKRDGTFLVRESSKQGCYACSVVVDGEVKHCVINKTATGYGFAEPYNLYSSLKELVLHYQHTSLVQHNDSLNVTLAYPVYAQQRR
# Procedure, shortened: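 PI3Kα (50 nM solution) was reacted with 30 μM ATP and 45 μM PIP2 solutions, each in HEPES pH 7.4 with MgCl2 and DTT, for 2 h at room temperature. Remaining ATP was measured by Kinase-Glo Plus luminescence, and inhibition was derived from ATP consumed. IC50 was taken from curve fitting of the serial dilutions.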
# [3] = test system: human endometrial cancer cell strain AN3CA; test: Cell growth inhibition test (MTT), AN3CA; assay type: cell-based; settings: AN3-CA, 72 h, 3 days culture, read-out: concentration exhibiting anti-cell effect (GI50)
# Procedure, shortened: as §3
# [4] = test system: Akt (threonine 308) phosphorylation in AN3CA tumor; test: Akt phosphorylation inhibition assay in xenograft; assay type: in vivo, female nude mouse; settings: Mus musculus, AN3-CA, oral, 6 hr after dosing
# Method: as §1, §2
GI50 [2],IC50 (PI3Kα),GI50 [3],SMILES,inhibition at 10 mg/kg [1],inhibition at 10 mg/kg [4]
≤ 5 µM,< 0.01 µM,≤ 5 µM,CC[C@@H]1CN(c2nc3c(N4CCOCC4)nc(-c4cnc(N)nc4)nc3n2CC(F)(F)F)CCN1C(=O)[C@H](C)O [Example 79],> 90%,> 60%
≤ 5 µM,< 0.01 µM,≤ 5 µM,"CC(C)Cn1c(N2CCN(C(=O)C[C@@H](C)O)CC2)nc2c(N3CCOCC3)nc(-c3cnc(N)nc3)nc21 [Example 81, (2R)-4-{4-[2-(2-Aminopyrimidin-5-yl)-9-isobutyl-6-morpholin-4-yl-9H-purin-8-yl]piperazin-1-yl}-4-oxobutan-2-ol]",> 90%,> 60%
≤ 5 µM,0.01 to 0.02 µM,≤ 5 µM,"CC(C)Cn1c(N2CCN(C(=O)C[C@H](C)O)CC2)nc2c(N3CCOCC3)nc(-c3cnc(N)nc3)nc21 [Example 82, (2S)-4-{4-[2-(2-Aminopyrimidin-5-yl)-9-isobutyl-6-morpholin-4-yl-9H-purin-8-yl]piperazin-1-yl}-4-oxobutan-2-ol]",> 90%,> 60%
≤ 5 µM,0.01 to 0.02 µM,≤ 5 µM,"CC(C)Cn1c(N2CCN(C(=O)C[C@@H](C)O)[C@@H](C)C2)nc2c(N3CCOCC3)nc(-c3cnc(N)nc3)nc21 [Example 83, (2R)-4-{(2S)-4-[2-(2-Aminopyrimidin-5-yl)-9-isobutyl-6-morpholin-4-yl-9H-purin-8-yl]-2-methylpiperazin-1-yl}-4-oxobutan-2-ol]",> 90%,> 60%
≤ 5 µM,< 0.01 µM,≤ 5 µM,"CC(C)Cn1c(N2CCN(C(=O)C[C@@H](C)O)[C@H](C)C2)nc2c(N3CCOCC3)nc(-c3cnc(N)nc3)nc21 [Example 84, (2R)-4-{(2R)-4-[2-(2-Aminopyrimidin-5-yl)-9-isobutyl-6-morpholin-4-yl-9H-purin-8-yl]-2-methylpiperazin-1-yl}-4-oxobutan-2-ol]",> 90%,> 60%
≤ 5 µM,< 0.01 µM,≤ 5 µM,"CC(C)Cn1c(N2CCN(C(=O)C[C@H](C)O)[C@@H](C)C2)nc2c(N3CCOCC3)nc(-c3cnc(N)nc3)nc21 [Example 85, (2S)-4-{(2S)-4-[2-(2-Aminopyrimidin-5-yl)-9-isobutyl-6-morpholin-4-yl-9H-purin-8-yl]-2-methylpiperazin-1-yl}-4-oxobutan-2-ol]",> 90%,> 60%

# Second part, the compound before the results:
SMILES,GI50 [2],IC50 (PI3Kα),GI50 [3],inhibition at 10 mg/kg [1],inhibition at 10 mg/kg [4]
"CC(=O)N1CCN(c2nc3c(N4CCOCC4)nc(-c4cnc(N)nc4)nc3n2CC(F)(F)F)C[C@@H]1C [Example 63, 5-{8-[(3S)-4-Acetyl-3-methylpiperazin-1-yl]-6-morpholin-4-yl-9-(2,2,2-trifluoroethyl)-9H-purin-2-yl}pyrimidin-2-amine]",≤ 5 µM,< 0.01 µM,≤ 5 µM,> 90%,> 60%
"CS(=O)(=O)N1CCN(c2nc3c(N4CCOCC4)nc(-c4cnc(N)nc4)nc3n2CC(F)F)CC1 [Example 64, 5-{9-(2,2-Difluoro-ethyl)-8-[4-(methylsulfonyl)piperazin-1-yl]-6-morpholin-4-yl-9H-purin-2-yl}pyrimidin-2-amine]",≤ 5 µM,0.01 to 0.02 µM,≤ 5 µM,> 90%,30 to 60%
"CC(=O)C(=O)N1CCN(c2nc3c(N4CCOCC4)nc(-c4cnc(N)nc4)nc3n2CC(F)(F)F)CC1 [Example 65, 1-{4-[2-(2-Aminopyrimidin-5-yl)-6-morpholin-4-yl-9-(2,2,2-trifluoroethyl)-9H-purin-8-yl]piperazin-1-yl}-1-oxoacetone]",≤ 5 µM,< 0.01 µM,≤ 5 µM,> 90%,30 to 60%
"CN(C)C(=O)C(=O)N1CCN(c2nc3c(N4CCOCC4)nc(-c4cnc(N)nc4)nc3n2CC(F)(F)F)CC1 [Example 66, 2-{4-[2-(2-Aminopyrimidin-5-yl)-6-morpholin-4-yl-9-(2,2,2-trifluoroethyl)-9H-purin-8-yl]piperazin-1-yl}-N,N-dimethyl-2-oxoacetamide]",≤ 5 µM,< 0.01 µM,≤ 5 µM,70 to 90%,30 to 60%
"Nc1ncc(-c2nc(N3CCOCC3)c3nc(N4CCN(C(=O)CO)CC4)n(CC(F)(F)F)c3n2)cn1 [Example 67, 2-{4-[2-(2-Aminopyrimidin-5-yl)-6-morpholin-4-yl-9-(2,2,2-trifluoroethyl)-9H-purin-8-yl]piperazin-1-yl}-2-oxoethanol]",≤ 5 µM,< 0.01 µM,≤ 5 µM,70 to 90%,30 to 60%
"C[C@H](O)C(=O)N1CCN(c2nc3c(N4CCOCC4)nc(-c4cnc(N)nc4)nc3n2CC(F)(F)F)CC1 [Example 68, (2S)-1-{4-[2-(2-Aminopyrimidin-5-yl)-6-morpholin-4-yl-9-(2,2,2-trifluoroethyl)-9H-purin-8-yl]piperazin-1-yl}-1-oxopropan-2-ol]",≤ 5 µM,0.01 to 0.02 µM,≤ 5 µM,> 90%,> 60%
"C[C@H](O)CC(=O)N1CCN(c2nc3c(N4CCOCC4)nc(-c4cnc(N)nc4)nc3n2CC(F)(F)F)CC1 [Example 69, (2S)-4-{4-[2-(2-Aminopyrimidin-5-yl)-6-morpholin-4-yl-9-(2,2,2-trifluoroethyl)-9H-purin-8-yl]piperazin-1-yl}-4-oxobutan-2-ol]",≤ 5 µM,< 0.01 µM,≤ 5 µM,> 90%,> 60%
"C[C@@H](O)CC(=O)N1CCN(c2nc3c(N4CCOCC4)nc(-c4cnc(N)nc4)nc3n2CC(F)(F)F)CC1 [Example 70, (2R)-4-{4-[2-(2-Aminopyrimidin-5-yl)-6-morpholin-4-yl-9-(2,2,2-trifluoroethyl)-9H-purin-8-yl]piperazin-1-yl}-4-oxobutan-2-ol]",≤ 5 µM,0.01 to 0.02 µM,≤ 5 µM,> 90%,> 60%
"Nc1ncc(-c2nc(N3CCOCC3)c3nc(N4CCN(C=O)CC4)n(CC(F)(F)F)c3n2)cn1 [Example 71, 4-[2-(2-Aminopyrimidin-5-yl)-6-morpholin-4-yl-9-(2,2,2-trifluoroethyl)-9H-purin-8-yl]piperazine-1-carboaldehyde]",≤ 5 µM,< 0.01 µM,≤ 5 µM,> 90%,> 60%
"CC[C@H]1CN(c2nc3c(N4CCOCC4)nc(-c4cnc(N)nc4)nc3n2CC(F)(F)F)CCN1C(C)=O [Example 75, 5-{8-[(3S)-4-Acetyl-3-ethylpiperazin-1-yl]-6-morpholin-4-yl-9-(2,2,2-trifluoroethyl)-9H-purin-2-yl}pyrimidin-2-amine]",≤ 5 µM,< 0.01 µM,≤ 5 µM,> 90%,> 60%
"CC[C@H]1CN(c2nc3c(N4CCOCC4)nc(-c4cnc(N)nc4)nc3n2CC(F)(F)F)CCN1S(C)(=O)=O [Example 76, 5-{8-[(3S)-3-Ethyl-4-(methylsulfonyl)piperazin-1-yl]-6-morpholin-4-yl-9-(2,2,2-trifluoroethyl)-9H-purin-2-yl}pyrimidin-2-amine]",≤ 5 µM,< 0.01 µM,≤ 5 µM,> 90%,> 60%
"CC[C@H]1CN(c2nc3c(N4CCOCC4)nc(-c4cnc(N)nc4)nc3n2CC(F)(F)F)CCN1C(=O)[C@H](C)O [Example 77, (2S)-1-{(2S)-4-[2-(2-Aminopyrimidin-5-yl)-6-morpholin-4-yl-9-(2,2,2-trifluoroethyl)-9H-purin-8-yl]-2-ethylpiperazin-1-yl}-1-oxopropan-2-ol]",≤ 5 µM,< 0.01 µM,≤ 5 µM,> 90%,> 60%
